Data published in patent US11357748B2, “Methods for treating mendelian disorders of the epigenetic machinery” (THE JOHNS HOPKINS UNIVERSITY, priority 2014, dated 2022).

System: H3K4 trimethylation machinery (H3K4me3 indicator)
Test: H3K4 trimethylation (H3K4me3) indicator reporter allele, FACS
Type: cell-based
Text: An H3K4 trimethylation reporter was also created (FIG. 5B). This reporter is based on the H3 tail on one end and the TBP associated factor III (TAFIII) […] on the other end; the TAFIII […] only identifies and binds to trimethylated K4 on H3. When the H3K4 site gets trimethylated, the TAFIII […] can bind to the modified H3 tail and bring the two parts of the separated GFP in close proximity. The activity of the epigenetic modification system can be quantified through fluorescence.
Epigenetic reporter alleles were synthesized (OriGene, Rockville, Md.) using published sequences for component elements (Baird et al. (1999) Proc. Natl. Acad. Sci. 96:11241-6; Souslova et al. (2007) BMC Biotechnol. 7:37). Single nucleotide mutations were created using the QuickChange Lightening kit (Agilent Technologies Inc, Santa Clara, Calif.). […] FACS data were analyzed using FlowJo (Tree Star Inc, Ashland, Oreg.). […]
Epigenetic reporter systems were created that monitor either H4 acetylation or H3K4 trimethylation machinery activity in an effort to determine whether there is an ongoing activity deficiency in cells from Kmt2d^+/βGeo mice (FIG. 18A). Both reporter alleles encode halves of green fluorescent protein separated by a flexible linker region (Baird et al. (1999) Proc. Natl. Acad. Sci. 96: 11241-6) with a histone tail and a histone reader at the N- and C-termini, respectively. […]

cell numbers (at higher doses, FIG. 18F (red line)): decreased cell numbers
SMILES: CC(C)[C@H](C(=O)Nc1ccc(C(=O)NO)cc1)c1ccccc1 [AR-42, (S)—N-hydroxy-4-(3-methyl-2-phenylbutanamido)benzamide]
H3K4me3 indicator response to increasing levels of drug (FIG. 18F): dose dependent response
